From publication PMC11516055, “From Static to Dynamic Structures: Improving Binding Affinity Prediction with Graph‐Based Deep Learning” (Advanced Science, 2024)

Target: T1, HSP90 (9-236) (Homo sapiens, UniProt P07900)
T1 construct: HSP90 (9‐236) was cross‐linked on the surface of the Series S Sensor Chip CM5
Experiment: Surface plasmon resonance (SPR) measurement of Ki on immobilised HSP90 (9-236)
Assay type: binding
Settings: Biacore S200, HSP90 (9-236) on CM5 chip, 1 × PBS with 5% DMSO
Text: Next, we performed docking on HSP90 against the ChemBridge DIVERSet‐EXP library, which contains 50,000 small molecules that cover a diverse pharmacophore space. The docked conformers were obtained using Autodock Vina, a widely used open‐source docking software.^[ [16], [60] ^] The reference protein‐ligand structure (PDB ID: 2xdl) was chosen from the test set, CASF‐2016, to identify the binding pocket. Then, the docked poses were used to score and rank the molecules based on the Dynaformer predictions. After that, the top‐ranked compounds were filtered and visually inspected for prioritization, following the approach and criteria described in the literature^[ [7], [61] ^] (see Experimental Section for details). To ensure the fairness of prioritization, we created a pool consisting of molecules among the top 10% from both Dynaformer and the original scoring function in Autodock Vina. From the pool, 20 molecules were chosen without knowing their rankings. Finally, surface plasmon resonance (SPR) experiments were conducted for each of the 20 molecules to measure the inhibition constant K i . In total, 12 of the 20 molecules had measurable binding affinities.
Finally, the binding affinities of the above 20 molecules were experimentally validated. Surface plasmon resonance (SPR) measurements were performed by the Biacore S200 instrument (GE Healthcare Life Sciences). HSP90 (9‐236) was cross‐linked on the surface of the Series S Sensor Chip CM5 (GE Healthcare) at pH 4.0 by an amine coupling kit with 1‐ethyl‐(3‐dimethylaminopropyl)‐carbodiimide hydrochloride (EDC) and NHS. Experiments were performed in a running buffer (1 × PBS with 5% DMSO). Each compound was serially diluted by a factor of two in the running buffer. The compound solution flowed through the surface of the chip at a flow rate of […]. Sensorgrams were analyzed and generated by Biacore Evaluation Software.

| Ki | Structure (SMILES) |
| --- | --- |
| 0.517 µM | COc1cccc(C(=O)Nc2ccc(Oc3ccccc3)cc2)c1OC [compound 2] |
| 4.5 µM | O=C(Nc1ccccc1)C1CC(=O)N(c2ccc3c4c(cccc24)CC3)C1 (stereo not shown) [compound 6] |
| 6.9 µM | Cc1cccc(C(=O)Nc2ccc3c(c2)OCCO3)c1[N+](=O)[O-] [compound 7] |
| 10 µM | O=c1[nH]c(=O)c2c(-c3cccc4ccccc34)ccnc2[nH]1 [compound 8] |
| 68.6 µM | Cc1ccc(-c2nc3nc4ccccc4nc3n2CC2CCCO2)cc1 (stereo not shown) [compound 9] |
| 98 µM | CCCC(=O)N1CCN(c2ccc(NC(=O)c3cccc(C)c3OC)cc2)CC1 [compound 11] |

The remaining lines, values behind:

| Structure (SMILES) | Ki |
| --- | --- |
| CC1=NNc2nc3c(c(=O)n(Cc4c(F)cccc4Cl)c(=O)n3C)n2C1 [compound 1] | 0.207 µM |
| Cc1ccc(Cn2c(C)c(C)n3c4c(=O)[nH]c(=O)n(C)c4nc23)cc1 [compound 4] | 2.5 µM |
| Nc1c(C(=O)c2ccccc2)sc2nc3c(cc12)CCCC3 [compound 5] | 3.97 µM |
| Cc1nn(-c2nc3ccccc3[nH]2)c2c1C(=O)CC(c1ccccc1O)C2 (stereo not shown) [compound 10] | 70 µM |

Target: T315I Abl kinase domain
Experiment: not given
Parameters: method as in PMID 17804707
Settings: experimental value, PDB ID 2v7a, CASF-2016; cited from earlier work

| Structure (SMILES) | pKi |
| --- | --- |
| CO[C@@H](C(=O)N1Cc2[nH]nc(NC(=O)c3ccc(N4CCN(C)CC4)cc3)c2C1)c1ccccc1 [2v7a] | 8.3 |

Target: aspartyl protease β-secretase (BACE)
Experiment: not given
Parameters: method as in PMID 22468999
Settings: experimental value, PDB ID 3udh; cited from earlier work

| Structure (SMILES) | pKi |
| --- | --- |
| O=C1Nc2ccccc2[C@]12CCNC2 [3udh] | 2.8 |

Target: HSP90
Experiment: not given
Parameters: method as in CASF-2016
Settings: HSP90 ligand in CASF-2016, reference structure for docking; ref CASF-2016; cited from earlier work

| Structure (SMILES) | pKi |
| --- | --- |
| CCN(CC)C(=O)c1ccc(O)c(OC)c1 [2XDL] | 3.10 |
